The target of the assay is ALK2 (Homo sapiens (Human), UniProt Q04771). As to the kind of experiment: ALK2 inhibition, LanthaScreen Eu Kinase Binding Assay (ThermoFisher Scientific / Life Technologies). The note with it: read-out: Measured Ki (IC50) Value for Compounds: IC50. As for the experimental part: Biochemical assays to measure the inhibitory effects of the compounds were performed by ThermoFisher Scientific (Life Technologies). ALK2 inhibition was tested using LanthaScreen™ Eu Kinase Binding Assay screening protocol.
ALK2, sequence (Q04771 21-509): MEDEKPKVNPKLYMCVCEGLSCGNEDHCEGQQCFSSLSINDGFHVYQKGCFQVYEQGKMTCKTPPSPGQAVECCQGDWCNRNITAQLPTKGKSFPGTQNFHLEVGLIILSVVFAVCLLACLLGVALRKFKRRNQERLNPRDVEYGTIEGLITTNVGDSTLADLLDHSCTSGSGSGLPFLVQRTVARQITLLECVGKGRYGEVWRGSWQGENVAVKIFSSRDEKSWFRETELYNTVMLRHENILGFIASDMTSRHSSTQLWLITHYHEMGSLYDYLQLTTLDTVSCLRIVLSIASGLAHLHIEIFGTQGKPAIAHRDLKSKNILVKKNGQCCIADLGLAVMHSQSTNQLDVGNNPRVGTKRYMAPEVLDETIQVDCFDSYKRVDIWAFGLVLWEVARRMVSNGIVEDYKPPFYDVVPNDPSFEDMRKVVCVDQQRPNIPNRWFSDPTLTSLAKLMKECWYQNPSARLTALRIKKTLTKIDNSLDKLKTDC
A general note: TR-FRET usually uses a lanthanide donor and a delayed reading to cut background.
In general, IC50 refers to the midpoint of a concentration-inhibition curve. Consider `COc1cc(-n2cnc(Nc3nc(N4CCC[C@@H]4C(N)=O)nc4cc(C(F)(F)F)ccc34)c2)cc(OC)c1OC` [Compound 287a, (R)-1-(7-(trifluoromethyl)-4-((1-(3,4,5-trimethoxyphenyl)-1H-imidazol-4-yl)amino)quinazolin-2-yl)pyrrolidine-2-carboxamide], for which the concentration for half-maximal inhibition (IC50) is less than 100 nM.

In the case of `COc1cc(-n2cnc(Nc3nc(N4CCC[C@@H]4C(N)=O)nc4cc(F)ccc34)c2)cc(OC)c1OC` [Compound 288a, (R)-1-(7-fluoro-4-((1-(3,4,5-trimethoxyphenyl)-1H-imidazol-4-yl)amino)quinazolin-2-yl)pyrrolidine-2-carboxamide], the IC50 was less than 100 nM.

With `COc1cc(-n2cnc(Nc3nc(N4CCC[C@H]4CO)nc4c3CCC4)c2)cc(OC)c1OC` [Compound 289b, (S)-(1-(4-((1-(3,4,5-trimethoxyphenyl)-1H-imidazol-4-yl)amino)-6,7-dihydro-5H-cyclopenta[d]pyrimidin-2-yl)pyrrolidin-2-yl)methanol], the half-inhibitory concentration (IC50) is less than 100 nM.

For `COc1cc(-n2cnc(Nc3nc(N4CCC[C@@H]4CO)nc4c3CCC4)c2)cc(OC)c1OC` [Compound 290a, (R)-(1-(4-((1-(3,4,5-trimethoxyphenyl)-1H-imidazol-4-yl)amino)-6,7-dihydro-5H-cyclopenta[d]pyrimidin-2-yl)pyrrolidin-2-yl)methanol], the IC50 was less than 100 nM.

Turning to `COc1cc(-n2cnc(Nc3nc(N4CCC[C@@H]4C(N)=O)nc4c3CCC4)c2)cc(OC)c1OC` [Compound 291a, (R)-1-(4-((1-(3,4,5-trimethoxyphenyl)-1H-imidazol-4-yl)amino)-6,7-dihydro-5H-cyclopenta[d]pyrimidin-2-yl)pyrrolidine-2-carboxamide], the IC50 was less than 100 nM.

On to `COc1cc(-n2cnc(Nc3nc(N4CCC[C@H]4C(N)=O)nc4c3CCC4)c2)cc(OC)c1OC` [Compound 292a, (S)-1-(4-((1-(3,4,5-trimethoxyphenyl)-1H-imidazol-4-yl)amino)-6,7-dihydro-5H-cyclopenta[d]pyrimidin-2-yl)pyrrolidine-2-carboxamide], for which the 50% inhibitory concentration (IC50) was less than 100 nM.

On to `COc1cc(-n2cnc(Nc3nc(N4CCC[C@@H]4CO)nc4cc(C(F)(F)F)ccc34)c2)cc(OC)c1OC` [Compound 293a, (R)-(1-(7-(trifluoromethyl)-4-((1-(3,4,5-trimethoxyphenyl)-1H-imidazol-4-yl)amino)quinazolin-2-yl)pyrrolidin-2-yl)methanol], for which the IC50 was less than 100 nM.

As to `COc1cc(-n2cnc(Nc3nc(N4CCC[C@@H]4CO)nc4ccoc34)c2)cc(OC)c1OC` [Compound 294a, (R)-(1-(4-((1-(3,4,5-trimethoxyphenyl)-1H-imidazol-4-yl)amino)furo[3,2-d]pyrimidin-2-yl)pyrrolidin-2-yl)methanol], the IC50 was less than 100 nM.

On to `COc1cc(-n2cnc(Nc3nc(N4CCC[C@@H]4CO)nc4c3CCCC4)c2)cc(OC)c1OC` [Compound 295b, (R)-(1-(4-((1-(3,4,5-trimethoxyphenyl)-1H-imidazol-4-yl)amino)-5,6,7,8-tetrahydroquinazolin-2-yl)pyrrolidin-2-yl)methanol], for which the IC50 was less than 100 nM.

`COc1cc(-n2cnc(Nc3nc(N4CCC[C@H]4CO)nc4c3CCCC4)c2)cc(OC)c1OC` [Compound 296a, (S)-(1-(4-((1-(3,4,5-trimethoxyphenyl)-1H-imidazol-4-yl)amino)-5,6,7,8-tetrahydroquinazolin-2-yl)pyrrolidin-2-yl)methanol]: the IC50 is less than 100 nM.

Regarding `COc1cc(-n2cnc(Nc3nc(N4CCC[C@@H]4CO)nc4sccc34)c2)cc(OC)c1OC` [Compound 297a, (R)-(1-(4-((1-(3,4,5-trimethoxyphenyl)-1H-imidazol-4-yl)amino)thieno[2,3-d]pyrimidin-2-yl)pyrrolidin-2-yl)methanol], the IC50 is less than 100 nM.

Regarding `COc1cc(-n2cnc(Nc3nc(N4CCC[C@@H]4C(N)=O)nc4sccc34)c2)cc(OC)c1OC` [Compound 298a, (R)-1-(4-((1-(3,4,5-trimethoxyphenyl)-1H-imidazol-4-yl)amino)thieno[2,3-d]pyrimidin-2-yl)pyrrolidine-2-carboxamide], the IC50 is less than 100 nM.

On to `COc1cc(-n2cnc(Nc3nc(N4CCC[C@@H]4C(N)=O)nc4ccsc34)c2)cc(OC)c1OC` [Compound 299a, (R)-1-(4-((1-(3,4,5-trimethoxyphenyl)-1H-imidazol-4-yl)amino)thieno[3,2-d]pyrimidin-2-yl)pyrrolidine-2-carboxamide], for which the 50% inhibitory concentration (IC50) was less than 100 nM.

Take `COc1cc(-n2cnc(Nc3nc(N4CCC[C@@H]4C(N)=O)nc4ccoc34)c2)cc(OC)c1OC` [Compound 300a, (R)-1-(4-((1-(3,4,5-trimethoxyphenyl)-1H-imidazol-4-yl)amino)furo[3,2-d]pyrimidin-2-yl)pyrrolidine-2-carboxamide]: the half-maximal inhibitory concentration (IC50) was less than 100 nM.

With `COc1cc(-n2cnc(Nc3nc(N4CCC[C@@H]4CO)c4occc4n3)c2)cc(OC)c1OC` [Compound 301b, (R)-(1-(2-((1-(3,4,5-trimethoxyphenyl)-1H-imidazol-4-yl)amino)furo[3,2-d]pyrimidin-4-yl)pyrrolidin-2-yl)methanol], the IC50 was less than 100 nM.

As to `COc1cc(-n2cnc(Nc3nc(N4CCC[C@H]4C(N)=O)nc4c3CCCC4)c2)cc(OC)c1OC` [Compound 302a, (S)-1-(4-((1-(3,4,5-trimethoxyphenyl)-1H-imidazol-4-yl)amino)-5,6,7,8-tetrahydroquinazolin-2-yl)pyrrolidine-2-carboxamide], the IC50 is less than 100 nM.

As to `COc1cc(-n2cnc(Nc3nc(N4CCC[C@@H]4CO)nc4ccsc34)c2)cc(OC)c1OC` [Compound 303a, (R)-(1-(4-((1-(3,4,5-trimethoxyphenyl)-1H-imidazol-4-yl)amino)thieno[3,2-d]pyrimidin-2-yl)pyrrolidin-2-yl)methanol], the IC50 is less than 100 nM.

As to `COc1cc(-n2cnc(Nc3nc(N4CCC[C@@H]4CO)nc4ccccc34)c2)cc(OC)c1OC` [Compound 304a, (R)-(1-(4-((1-(3,4,5-trimethoxyphenyl)-1H-imidazol-4-yl)amino)quinazolin-2-yl)pyrrolidin-2-yl)methanol], the IC50 is less than 100 nM.

Consider `COc1cc(-n2cnc(Nc3nc(N4CCC[C@@H]4C(N)=O)nc4ccccc34)c2)cc(OC)c1OC` [Compound 305a, (R)-1-(4-((1-(3,4,5-trimethoxyphenyl)-1H-imidazol-4-yl)amino)quinazolin-2-yl)pyrrolidine-2-carboxamide], for which the IC50 is less than 100 nM.

Take `COc1cc(-n2cnc(Nc3nc(N4CCC[C@@H]4CO)nc4cc(N5CCC[C@@H]5CO)ccc34)c2)cc(OC)c1OC` [Compound 306a, ((2R,2′R)-1,1′-(4-((1-(3,4,5-trimethoxyphenyl)-1H-imidazol-4-yl)amino)quinazoline-2,7-diyl)bis(pyrrolidine-2,1-diyl))dimethanol]: the 50% inhibitory concentration (IC50) is less than 100 nM.

Consider `COc1cc(-n2cnc(Nc3nc(N4CCC[C@@H]4CO)c4cc[nH]c4n3)c2)cc(OC)c1OC` [Compound 307c, (R)-(1-(2-((1-(3,4,5-trimethoxyphenyl)-1H-imidazol-4-yl)amino)-7H-pyrrolo[2,3-d]pyrimidin-4-yl)pyrrolidin-2-yl)methanol], for which the IC50 was less than 100 nM.

On to `COc1cc(-n2cnc(Nc3nc(N4CCC[C@@H]4CO)nc4[nH]ccc34)c2)cc(OC)c1OC` [Compound 308b, (R)-(1-(4-((1-(3,4,5-trimethoxyphenyl)-1H-imidazol-4-yl)amino)-7H-pyrrolo[2,3-d]pyrimidin-2-yl)pyrrolidin-2-yl)methanol], for which the half-inhibitory concentration (IC50) was less than 100 nM.

As to `COc1cc(-n2cnc(Nc3nc(N4CCC[C@@H]4CO)c4ccsc4n3)c2)cc(OC)c1OC` [Compound 309b, (R)-(1-(2-((1-(3,4,5-trimethoxyphenyl)-1H-imidazol-4-yl)amino)thieno[2,3-d]pyrimidin-4-yl)pyrrolidin-2-yl)methanol], the half-inhibitory concentration (IC50) is less than 100 nM.

With `COc1cc(-n2cnc(Nc3nc(N4CCC[C@@H]4CO)c4sccc4n3)c2)cc(OC)c1OC` [Compound 310b, (R)-(1-(2-((1-(3,4,5-trimethoxyphenyl)-1H-imidazol-4-yl)amino)thieno[3,2-d]pyrimidin-4-yl)pyrrolidin-2-yl)methanol], the IC50 was less than 100 nM.

Turning to `COc1cc(-n2cnc(Nc3nc(N4CCC[C@H]4C(N)=O)nc4c3COC4)c2)cc(OC)c1OC` [Compound 311a, (S)-1-(4-((1-(3,4,5-trimethoxyphenyl)-1H-imidazol-4-yl)amino)-5,7-dihydrofuro[3,4-d]pyrimidin-2-yl)pyrrolidine-2-carboxamide], the IC50 was less than 100 nM.

Consider `COc1cc(-n2cnc(Nc3nc(N4CCC[C@@H]4C(N)=O)nc4c3COC4)c2)cc(OC)c1OC` [Compound 312a, (R)-1-(4-((1-(3,4,5-trimethoxyphenyl)-1H-imidazol-4-yl)amino)-5,7-dihydrofuro[3,4-d]pyrimidin-2-yl)pyrrolidine-2-carboxamide], for which the concentration for half-maximal inhibition (IC50) was less than 100 nM.

On to `COc1cc(-n2cnc(Nc3nc(N4CCC[C@@H]4C(N)=O)nc4c3CCCC4)c2)cc(OC)c1OC` [Compound 313a, (R)-1-(4-((1-(3,4,5-trimethoxyphenyl)-1H-imidazol-4-yl)amino)-5,6,7,8-tetrahydroquinazolin-2-yl)pyrrolidine-2-carboxamide], for which the IC50 was less than 100 nM.

`COc1cc(-n2cnc(Nc3nc(N4CCC[C@@H]4C(N)=O)nc4[nH]ccc34)c2)cc(OC)c1OC` [Compound 314b, (R)-1-(4-((1-(3,4,5-trimethoxyphenyl)-1H-imidazol-4-yl)amino)-7H-pyrrolo[2,3-d]pyrimidin-2-yl)pyrrolidine-2-carboxamide]: the IC50 is less than 100 nM.

Consider `COc1cc(-n2cnc(Nc3nc(N4CCC[C@H]4C(N)=O)nc4cc(CN5CCCCC5)oc34)c2)cc(OC)c1OC` [Compound 315f, (S)-1-(6-(piperidin-1-ylmethyl)-4-((1-(3,4,5-trimethoxyphenyl)-1H-imidazol-4-yl)amino)furo[3,2-d]pyrimidin-2-yl)pyrrolidine-2-carboxamide], for which the 50% inhibitory concentration (IC50) was less than 100 nM.

Regarding `COc1cc(-n2cnc(Nc3nc(N4CCC[C@H]4CO)nc4cnn(C)c34)c2)cc(OC)c1OC` [Compound 316a, (S)-(1-(1-methyl-7-((1-(3,4,5-trimethoxyphenyl)-1H-imidazol-4-yl)amino)-1H-pyrazolo[4,3-d]pyrimidin-5-yl)pyrrolidin-2-yl)methanol], the half-inhibitory concentration (IC50) lay in the range of 100 to 1000 nM.

The record behind these values is patent US11661426B2, “Imidazole-containing inhibitors of ALK2 kinase” (BioCryst Pharmaceuticals, Inc., priority 2017, dated 2023).
